For one test, the target named is Phosphodiesterase 4 (Homo sapiens, UniProt P27815+Q08499+Q07343+Q08493). Nature of the test: Inhibitory potency against guinea pig ventricular phosphodiesterase 4. It is filed as protein assay, Cavia porcellus. As to conditions: target entry is the homologue from another species.
Another test deals with Phosphodiesterase 3 (Homo sapiens, UniProt Q14432+Q13370). Nature of the test: Inhibitory potency against guinea pig ventricular phosphodiesterase 3. It is filed as protein assay, Cavia porcellus. To be noted: target entry is the homologue from another species.
Test [1] concerns Canis familiaris. The test can be described thus: Minimum emetic dose in dogs after intravenous administration. The test is classed as functional, Canis lupus familiaris.
Test [2] concerns Cavia porcellus. Nature of the test: Inhibition of histamine induced bronchoconstriction in guinea pig after intravenous administration. It is filed as functional.
The test system of test [3] is Cavia porcellus. Nature of the test: Inhibition of Eosinophilia after peroral administration at 10 mg/Kg compound in guinea pig. As to conditions: po. The test is classed as functional.
In test [4] the test system is Canis familiaris. The test can be described thus: Minimum emetic dose in dogs after peroral administration. It is filed as functional, Canis lupus familiaris.

Consider 27 compounds from ChEMBL document CHEMBL1133487, “Synthesis and biological evaluation of 2,5-dihydropyrazol” (Bioorg Med Chem Lett, 2000).

A value given as a limit tells only on which side of the number the result lay.

`O=c1c2cn(Cc3ccccc3)c3ccccc3c-2nn1C1CC2CCC1C2` (configuration not stated): the IC50 at Phosphodiesterase 4 was 1.4 µM; against Phosphodiesterase 3, > 20 µM.
`O=c1c2cn(Cc3ccccc3)c3ccccc3c-2nn1C1CCCC1`: the figures for the IC50 at Phosphodiesterase 4 and against Phosphodiesterase 3 were 0.7 µM and 26 µM, respectively.
Consider `CCCCn1[nH]c2c(cnc3ccccc32)c1=O`, for which the results for the IC50 against Phosphodiesterase 4 and against Phosphodiesterase 3 were 90 µM and 136 µM, respectively.
Regarding `CCCCn1nc2c3ccccc3n(CC3CCCCC3)cc-2c1=O`, the Dose in the test on Canis familiaris [1] was >1 mg/kg. The values for the IC50 against Phosphodiesterase 4 and against Phosphodiesterase 3 were 0.7 µM and 111 µM, respectively. Further, the median effective dose (ED50) with Cavia porcellus [2] is > 0.1 mg/kg. Moreover, in the test on Cavia porcellus [3], the inhibition in vivo at 10 mg/kg is 60%.
`O=c1c2cn(Cc3ccccc3)c3ccccc3c-2nn1CC1CCCCC1`: the concentration for half-maximal inhibition (IC50) against Phosphodiesterase 4 was determined as 24 µM; on Phosphodiesterase 3, 102 µM.
For `CCCCn1nc2c3ccccc3n(Cc3cccc([N+](=O)[O-])c3)cc-2c1=O`, in that order: 11 µM and > 20 µM.
In the case of `CCCCCn1nc2c3ccccc3n(Cc3ccccc3)cc-2c1=O`, the half-maximal inhibitory concentration (IC50) at Phosphodiesterase 4 was determined as 6.4 µM; against Phosphodiesterase 3, 120 µM.
On to `CC(C)(C)n1nc2c3ccccc3n(Cc3cccs3)cc-2c1=O`, for which the 50% inhibitory concentration (IC50) was 0.8 µM against Phosphodiesterase 4 and > 20 µM on Phosphodiesterase 3.
Regarding `O=c1c2cn(CC3CCCCC3)c3ccccc3c-2nn1C1CCCC1`, the IC50 against Phosphodiesterase 4 was 0.4 µM; against Phosphodiesterase 3 it was > 20 µM.
The like results for `O=c1c2cn(Cc3ccccc3)c3ccccc3c-2nn1CCc1ccccc1` were, in that order, 10 µM and > 100 µM.
For the compound `O=c1c2cn(Cc3ccccc3)c3ccccc3c-2nn1Cc1ccccc1`, the figures for the IC50 against Phosphodiesterase 4 and against Phosphodiesterase 3 were 7 µM and 25 µM, respectively.
As for `O=c1[nH]nc2c3ccccc3n(Cc3ccccc3)cc1-2`, the IC50 against Phosphodiesterase 4 is 37 µM; against Phosphodiesterase 3 it was 48 µM.
Consider `CC(C)(C)n1nc2c3ccccc3n(Cc3ccccc3)cc-2c1=O`, for which the IC50 against Phosphodiesterase 4 is 2.1 µM; against Phosphodiesterase 3 it was > 100 µM. In the test with Cavia porcellus [3], this compound had an inhibition in vivo at 10 mg/kg of 51%. Besides, the Dose with Canis familiaris [4] is >10 mg/kg.
On to `O=c1c2cn(Cc3cccs3)c3ccccc3c-2nn1C1CCCC1`, for which the Dose in the test with Canis familiaris [1] is >3 mg/kg. The figures for the IC50 against Phosphodiesterase 4 and against Phosphodiesterase 3 were 0.4 µM and > 20 µM, respectively. The median effective dose (ED50) in the test with Cavia porcellus [2] came to 0.083 mg/kg. At 10 mg/kg the inhibition in vivo in the test on Cavia porcellus [3] was 62%.
For `CCCCn1nc2c3ccccc3n(CCc3ccccc3)cc-2c1=O`, the figures for the IC50 against Phosphodiesterase 4 and against Phosphodiesterase 3 were 160 µM and > 200 µM, respectively.
Turning to `CCn1nc2c3ccccc3n(Cc3ccccc3)cc-2c1=O`, the results for the concentration for half-maximal inhibition (IC50) against Phosphodiesterase 4 and on Phosphodiesterase 3 were 3 µM and 10 µM, respectively.
With `Cn1nc2c3ccccc3n(Cc3ccccc3)cc-2c1=O`, the IC50 at Phosphodiesterase 4 was found to be 14 µM; at Phosphodiesterase 3 it was 67 µM.
The like results for `CC(C)(C)n1nc2c3ccccc3n(CC3CCCCC3)cc-2c1=O` were, in that order, 0.5 µM and > 20 µM.
`CCCCn1nc2c3ccccc3n(-c3ccccc3)cc-2c1=O`: the IC50 on Phosphodiesterase 4 turned out to be 18 µM; on Phosphodiesterase 3, 68 µM.
Take `CCCCn1nc2c3ccccc3n(Cc3ccccc3)cc-2c1=O`: the Dose in the test on Canis familiaris [1] is >3 mg/kg. Moreover, the values for the IC50 against Phosphodiesterase 4 and against Phosphodiesterase 3 were 2.1 µM and 31 µM, respectively. Moreover, the ED50 in the test on Cavia porcellus [2] was > 0.1 mg/kg. This compound yielded an inhibition in vivo at 10 mg/kg with Cavia porcellus [3] of 52%.
Consider `CCCCn1nc2c3ccccc3n(Cc3cccc(N)c3)cc-2c1=O`, for which the results for the IC50 against Phosphodiesterase 4 and against Phosphodiesterase 3 were 12 µM and > 200 µM, respectively.
On to `CCCCn1nc2c3ccccc3n(Cc3cccc(Cl)c3)cc-2c1=O`, for which the 50% inhibitory concentration (IC50) is 2.3 µM at Phosphodiesterase 4 and > 20 µM against Phosphodiesterase 3. The same compound gave an ED50 in the test on Cavia porcellus [2] of 0.062 mg/kg. The compound also returned an inhibition in vivo at 10 mg/kg in the test on Cavia porcellus [3] of 53%. Further, in the test on Canis familiaris [4], the Dose is >10 mg/kg.
Turning to `O=c1c2cn(Cc3ccccc3)c3ccccc3c-2nn1CC1CCC1`, the figures for the IC50 at Phosphodiesterase 4 and against Phosphodiesterase 3 were 0.8 µM and > 200 µM, respectively.
Take `CC(C)n1nc2c3ccccc3n(Cc3ccccc3)cc-2c1=O`: the half-inhibitory concentration (IC50) against Phosphodiesterase 4 was found to be 1.2 µM; against Phosphodiesterase 3 it was 86 µM.
Regarding `CCCCn1nc2c3ccccc3n(Cc3cccs3)cc-2c1=O`, the IC50 against Phosphodiesterase 4 was 2.7 µM; against Phosphodiesterase 3 it was > 20 µM. The compound also showed an ED50 with Cavia porcellus [2] of 0.037 mg/kg. The inhibition in vivo at 10 mg/kg in the test with Cavia porcellus [3] amounted to 56%. For the same compound, in the test on Canis familiaris [4], the Dose is >10 mg/kg.
For the compound `CCn1c(=O)c2ccccc2n(-c2cccc([N+](=O)[O-])c2)c1=O` [NITRAQUAZONE], the figures for the IC50 at Phosphodiesterase 4 and against Phosphodiesterase 3 were 0.05 µM and > 200 µM, respectively.
Compound `COc1ccc(C2CNC(=O)C2)cc1OC1CCCC1` (configuration not stated) [ROLIPRAM] came in with a Dose in the test with Canis familiaris [1] of 0.03 mg/kg. In addition, the ED50 with Cavia porcellus [2] came to 0.004 mg/kg. The same compound yielded an inhibition in vivo at 10 mg/kg with Cavia porcellus [3] of 58%.
